Among the data in patent US9682980B2, “Positive allosteric modulators of mGluR2” (BRISTOL-MYERS SQUIBB COMPANY, priority 2012, dated 2017) are EC50 values, retold here.

SMILES strings stand for the structures. pEC50: −log10 of the molar value.

Sequence of human mGluR2 (Q14416 19-872): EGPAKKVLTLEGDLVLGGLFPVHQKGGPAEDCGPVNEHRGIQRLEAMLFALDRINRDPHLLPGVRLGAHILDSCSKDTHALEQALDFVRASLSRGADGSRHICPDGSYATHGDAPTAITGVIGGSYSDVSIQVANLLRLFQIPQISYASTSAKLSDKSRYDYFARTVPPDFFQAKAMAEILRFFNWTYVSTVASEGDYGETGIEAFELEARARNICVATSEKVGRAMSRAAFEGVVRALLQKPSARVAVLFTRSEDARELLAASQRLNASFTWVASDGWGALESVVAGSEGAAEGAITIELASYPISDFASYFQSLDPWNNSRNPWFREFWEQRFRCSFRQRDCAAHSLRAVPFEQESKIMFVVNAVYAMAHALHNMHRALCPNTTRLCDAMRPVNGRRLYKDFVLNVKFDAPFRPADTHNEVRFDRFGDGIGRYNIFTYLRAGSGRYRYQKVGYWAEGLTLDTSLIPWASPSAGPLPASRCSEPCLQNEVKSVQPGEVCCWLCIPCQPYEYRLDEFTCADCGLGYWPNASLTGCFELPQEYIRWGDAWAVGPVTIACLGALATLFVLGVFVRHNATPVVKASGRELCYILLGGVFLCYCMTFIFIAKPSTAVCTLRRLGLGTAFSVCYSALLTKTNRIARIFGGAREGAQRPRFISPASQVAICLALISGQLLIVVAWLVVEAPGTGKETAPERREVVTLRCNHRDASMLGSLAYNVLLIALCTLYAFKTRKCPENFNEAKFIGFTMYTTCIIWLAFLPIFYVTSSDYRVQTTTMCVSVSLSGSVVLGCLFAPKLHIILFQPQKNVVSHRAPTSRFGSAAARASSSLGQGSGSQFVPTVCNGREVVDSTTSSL

The assay has as its target human mGluR2 (Homo sapiens (Human), UniProt Q14416). The experiment in a line: MGluR2 cAMP assay. In kind it is cell-based. The note with it: HEK293 cells clonally expressing human mGluR2, 1 μM forskolin, 1 μM LY-341495. The procedure, abridged: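 HEK293 cells expressing human mGluR2, glutamate-starved overnight, stimulated 30 min in HBSS pH 7.0 with 1 mM IBMX, 1 μM forskolin and 1 μM LY-341495. cAMP measured by HTRF (665/618 nm ratio) against a cAMP standard curve; EC50 from 4-parameter logistic fit of % inhibition.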
As for `COc1cc(OC)nc(C2CCN(c3cnn4c(CC5CC5)nnc4c3Cl)CC2)n1` [Example 42, 8-Chloro-3-(cyclopropylmethyl)-7-(4-(4,6-dimethoxypyrimidin-2-yl)piperidin-1-yl)-[1,2,4]triazolo[4,3-b]pyridazine], the pEC50 (as a rule, the negative decadic logarithm of the EC50, by convention in mol/L) is 7.96.
In the case of `COc1cc(OC)nc(C2CCN(c3cnn4c(CC(F)(F)F)nnc4c3Cl)CC2)n1` [Example 43, 8-Chloro-7-(4-(4,6-dimethoxypyrimidin-2-yl)piperidin-1-yl)-3-(2,2,2-trifluoroethyl)-[1,2,4]triazolo[4,3-b]pyridazine], the negative-log EC50 (pEC50) is 8.00.
With `Clc1ccccc1C1CCN(c2cnn3c(CC4CC4)nnc3c2Cl)CC1` [Example 44, 8-Chloro-7-(4-(2-chlorophenyl)piperidin-1-yl)-3-(cyclopropylmethyl)-[1,2,4]triazolo[4,3-b]pyridazine], the pEC50 is 7.35.
Turning to `FC(F)(F)Cc1nnc2c(Cl)c(N3CCC(c4ccccc4Cl)CC3)cnn12` [Example 45, 8-Chloro-7-(4-(2-chlorophenyl)piperidin-1-yl)-3-(2,2,2-trifluoroethyl)-[1,2,4]triazolo[4,3-b]pyridazine], the negative-log EC50 (pEC50) was 7.32.
Compound `Clc1cccc(C2CCN(c3cnn4c(CC5CC5)nnc4c3Cl)CC2)c1Cl` [Example 46, 8-Chloro-3-(cyclopropylmethyl)-7-(4-(2,3-dichlorophenyl)piperidin-1-yl)-[1,2,4]triazolo[4,3-b]pyridazine] gave a pEC50 of 6.81.
In the case of `Clc1cc(Cl)cc(C2CCN(c3cnn4c(CC5CC5)nnc4c3Cl)CC2)c1` [Example 47, 8-Chloro-3-(cyclopropylmethyl)-7-(4-(3,5-dichlorophenyl)piperidin-1-yl)-[1,2,4]triazolo[4,3-b]pyridazine] it was 6.84.
Turning to `FC(F)(F)Cc1nnc2c(Cl)c(N3CCC(c4cc(Cl)cc(Cl)c4)CC3)cnn12` [Example 48, 8-Chloro-7-(4-(3,5-dichlorophenyl)piperidin-1-yl)-3-(2,2,2-trifluoroethyl)-[1,2,4]triazolo[4,3-b]pyridazine], the pEC50 was 6.58.
In the case of `CCN(CC1CC1c1ccc(F)cc1)c1cnn2c(CC3CC3)nnc2c1Cl` (stereo not drawn) [Example 49, 8-Chloro-3-(cyclopropylmethyl)-N-ethyl-N-((2-(4-fluorophenyl)cyclopropyl)methyl)-[1,2,4]triazolo[4,3-b]pyridazin-7-amine] it was 6.37; in that of `Fc1ccc(F)c(C2CCN(c3cnn4c(CC5CC5)nnc4c3Cl)CC2)c1OC(F)F` [Example 50, 8-Chloro-3-(cyclopropylmethyl)-7-(4-(2-(difluoromethoxy)-3,6-difluorophenyl)piperidin-1-yl)-[1,2,4]triazolo[4,3-b]pyridazine], 8.70.
With `Fc1ccc(F)c(C2CCN(c3cnn4c(CC(F)(F)F)nnc4c3Cl)CC2)c1OC(F)F` [Example 51, 8-Chloro-7-(4-(2-(difluoromethoxy)-3,6-difluorophenyl)piperidin-1-yl)-3-(2,2,2-trifluoroethyl)-[1,2,4]triazolo[4,3-b]pyridazine], the pEC50 was 8.52.
Turning to `Fc1cc(OC(F)F)c(C2CCN(c3cnn4c(CC5CC5)nnc4c3Cl)CC2)cc1F` [Example 52, 8-Chloro-3-(cyclopropylmethyl)-7-(4-(2-(difluoromethoxy)-4,5-difluorophenyl)piperidin-1-yl)-[1,2,4]triazolo[4,3-b]pyridazine], the pEC50 was 8.10.
For `Fc1cc(OC(F)F)c(C2CCN(c3cnn4c(CC(F)(F)F)nnc4c3Cl)CC2)cc1F` [Example 53, 8-Chloro-7-(4-(2-(difluoromethoxy)-4,5-difluorophenyl)piperidin-1-yl)-3-(2,2,2-trifluoroethyl)-[1,2,4]triazolo[4,3-b]pyridazine] the value was 8.22; for `Fc1cc(F)c(OC(F)F)c(C2CCN(c3cnn4c(CC5CC5)nnc4c3Cl)CC2)c1` [Example 54, 8-Chloro-3-(cyclopropylmethyl)-7-(4-(2-(difluoromethoxy)-3,5-difluorophenyl)piperidin-1-yl)-[1,2,4]triazolo[4,3-b]pyridazine], 8.00; for `Fc1cc(F)c(OC(F)F)c(C2CCN(c3cnn4c(CC(F)(F)F)nnc4c3Cl)CC2)c1` [Example 55, 8-Chloro-7-(4-(2-(difluoromethoxy)-3,5-difluorophenyl)piperidin-1-yl)-3-(2,2,2-trifluoroethyl)-[1,2,4]triazolo[4,3-b]pyridazine], 7.68.
For `FC(F)(F)Cc1nnc2c(Cl)c(N3CCC(c4ccccc4)CC3)cnn12` [Example 56, 8-Chloro-7-(4-phenylpiperidin-1-yl)-3-(2,2,2-trifluoroethyl)-[1,2,4]triazolo[4,3-b]pyridazine], the negative logarithm of the EC50 (pEC50) was 7.21.
The compound `Clc1c(N2CCC(c3ccccc3)CC2)cnn2c(Cc3ccccc3)nnc12` [Example 57, 3-Benzyl-8-chloro-7-(4-phenylpiperidin-1-yl)-[1,2,4]triazolo[4,3-b]pyridazine] gave a pEC50 of 6.66.
In the case of `CC(C)Cc1nnc2c(Cl)c(N3CCC(c4ccccc4)CC3)cnn12` [Example 58, 8-Chloro-3-isobutyl-7-(4-phenylpiperidin-1-yl)-[1,2,4]triazolo[4,3-b]pyridazine], the pEC50 was 6.70.
In the case of `Clc1c(N2CCC(c3ccccc3)CC2)cnn2c(CCC3CC3)nnc12` [Example 59, 8-Chloro-3-(2-cyclopropylethyl)-7-(4-phenylpiperidin-1-yl)-[1,2,4]triazolo[4,3-b]pyridazine] it was 6.92; in that of `FC(F)(F)Cc1nnc2c(Cl)c(N3CCC(c4cccc(Cl)c4Cl)CC3)cnn12` [Example 60, 8-Chloro-7-(4-(2,3-dichlorophenyl)piperidin-1-yl)-3-(2,2,2-trifluoroethyl)-[1,2,4]triazolo[4,3-b]pyridazine], 7.03; in that of `Clc1c(NC2CCC(c3ccccc3)CC2)cnn2c(CC3CC3)nnc12` (stereo not drawn) [Example 61, 8-Chloro-3-(cyclopropylmethyl)-N-(4-phenylcyclohexyl)-[1,2,4]triazolo[4,3-b]pyridazin-7-amine], 6.65.
Compound `O=C1Oc2ccccc2C12CCN(c1cnn3c(CC4CC4)nnc3c1Cl)CC2` [Example 62, 1′-(8-Chloro-3-(cyclopropylmethyl)-[1,2,4]triazolo[4,3-b]pyridazin-7-yl)-2H-spiro[benzofuran-3,4′-piperidin]-2-one] gave a pEC50 of 7.33.
In the case of `O=C1Oc2ccccc2C12CCN(c1cnn3c(CC(F)(F)F)nnc3c1Cl)CC2` [Example 63, 1′-(8-Chloro-3-(2,2,2-trifluoroethyl)-[1,2,4]triazolo[4,3-b]pyridazin-7-yl)-2H-spiro[benzofuran-3,4′-piperidin]-2-one] it was 6.73; in that of `FC(F)(F)Cc1nnc2c(Cl)c(NC3CCC(c4ccccc4)CC3)cnn12` (stereo not drawn) [Example 64, 8-Chloro-N-(4-phenylcyclohexyl)-3-(2,2,2-trifluoroethyl)-[1,2,4]triazolo[4,3-b]pyridazin-7-amine], 6.13; in that of `FC(F)(F)c1ccccc1C1CCN(c2cnn3c(CC4CC4)nnc3c2Cl)CC1` [Example 65, 8-Chloro-3-(cyclopropylmethyl)-7-(4-(2-(trifluoromethyl)phenyl)piperidin-1-yl)-[1,2,4]triazolo[4,3-b]pyridazine], 7.44.
